What was measured:
[1] = molecular target: T1, human recombinant AR (Homo sapiens, UniProt P15121); assay: Kinetic analysis of AR inhibition (Lineweaver-Burk and secondary plots); format: biochemical
T1 construct: made in house; host or cells: E. coli BL21(DE3)pLysS
Procedure: The kinetic analysis of compounds 4a, 4e and 4f was performed by measuring reaction rates with different L-idose concentrations s (S) in the absence and in the presence of different inhibitors concentrations. Data were analyzed by Linewever-Burk plots.

[2] = tested on: HepG2 cells; assay: Cell viability, MTT assay, HepG2; format: cell-based, human; details: HepG2, 48 h, up to 50 μM
Procedure: Human liver cells (HepG2) and murine myoblasts (C2C12) were purchased by Sigma-Aldrich, which obtained them from the European Collection of Authenticated Cell Cultures (ECACC). HepG2 and C2C12 cells were grown in Dulbecco’s Modified Eagle’s medium (DMEM) supplemented with 10% foetal bovine serum (FBS), 2 mM glutamine, 100 IU/mL penicillin, 100 μg/mL streptomycin (Sigma-Aldrich, St. Louis, MO, USA), in a humidified atmosphere and with 5% CO2 at 37 °C. Differentiation of C2C12 was induced incubating murine myoblasts in DMEM supplemented with 2% horse serum. C2C12 cells were plated and grown until they reach 70% confluence. Then, cells were incubated in the presence of 2% horse serum for 96 h. Every 48 h, the medium was replaced with fresh medium. After 96 h, the degree of differentiation was evaluated analysing cells with a contrast phase microscope.
HepG2 and C2C12 cells were incubated in the presence of increasing concentrations of compounds 4e and 4f for 48 h at 37 °C. After this time, cells were washed with PBS and then incubated for 1 h with 0.5 mg/mL of MTT dissolved in complete medium. Then cells were washed and lysed with 300 μL of DMSO. The absorbance of solutions were evaluated using a microplate readers at 595 nm. All data were normalized respect to control experiment.

[3] = molecular target: T2, human recombinant PTP1B (Homo sapiens, UniProt P18031); assay: Reversibility assay (dilution test) with PTP1B; format: biochemical; details: saturating inhibitor, 60 min 37 °C, diluted 400 folds
T2 sequence (P18031 1-435): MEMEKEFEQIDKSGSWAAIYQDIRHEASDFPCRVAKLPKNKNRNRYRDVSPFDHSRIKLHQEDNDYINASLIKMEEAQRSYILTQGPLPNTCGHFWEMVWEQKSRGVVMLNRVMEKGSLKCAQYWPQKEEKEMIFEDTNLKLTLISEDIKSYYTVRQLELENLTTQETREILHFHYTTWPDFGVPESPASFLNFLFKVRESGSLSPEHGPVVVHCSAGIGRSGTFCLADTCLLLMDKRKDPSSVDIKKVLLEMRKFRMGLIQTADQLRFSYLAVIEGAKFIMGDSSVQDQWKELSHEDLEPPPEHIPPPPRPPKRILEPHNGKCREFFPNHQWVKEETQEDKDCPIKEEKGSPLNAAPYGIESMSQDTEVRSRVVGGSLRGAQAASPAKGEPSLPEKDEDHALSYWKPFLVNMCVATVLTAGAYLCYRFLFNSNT
Procedure: An aliquot of the enzyme was incubated for 60 min at 37 °C in the presence of saturating amount of PTP1B inhibitor. After this time, an aliquot of the enzyme was withdrawn and diluted 400 folds in the assay buffer containing 2.5 mM of pNPP. After 15 min, the reaction was stopped by adding 1 mL of KOH 0.2 M. The amount of pNP released was calculating measuring the absorbance at 400 nm of solutions using a spectrophotometer. Data obtained were normalized respect to control tests, which was carried out diluting the enzyme with DMSO, the solvent used to dissolve all compounds. Data reported in the figure represent the mean value +/− S.E.M. (n = 3).

[4] = molecular target: T2, human recombinant PTP1B; assay: Kinetic analysis of PTP1B inhibition (Lineweaver-Burk plot); format: biochemical; details: pNPP as substrate
Procedure: Kinetic analyses were carried out to dissect action mechanism of compound 4e and 4f. Briefly, the main kinetic parameters, Km and Vmax, were calculated measuring the initial hydrolysis rate of PTP1B in the presence of increasing pNPP concentration (seven different concentrations in the 0.5–25 mM range). All assays were carried out in duplicate. Data obtained were fitted using the Michaelis-Menten equation. To evaluate the action mechanism of inhibitors, we studied the dependence of Km and Vmax from inhibitors concentration, using three different inhibitor concentrations, at least. Data obtained were then analysed by double reciprocal plot (Lineweaver-Burk plot).

AR Ki relative to K′i ([1]; Ki higher than K′i): at least ten-fold higher | AR K′i (apparent dissociation constant, EIS complex) ([1]; L-idose as substrate): 2.9 ± 0.12 µM | Mechanism of AR inhibition ([1]; L-idose as substrate): uncompetitive inhibitors | Ki ([1]; L-idose as substrate, read-out: AR Ki (apparent dissociation constant)): > 30000 nM | Reversibility of PTP1B inhibition [3]: reversible inhibitors | Mechanism of PTP1B inhibition [4]: mixed-type non-competitive inhibitors | PTP1B K′i (apparent dissociation constant, EIS complex) [4]: 2.3 ± 0.1 µM | Ki ([4]; read-out: PTP1B Ki (apparent dissociation constant)): 900 ± 100 nM
SMILES: O=C(O)CCN1C(=O)/C(=C/c2ccc(OCCc3ccccc3)cc2)SC1=S [4f, 3-[(5Z)-4-Oxo-{5-[4-(2-phenylethoxy)phenyl]methylidene}-2-thioxothiazolidin-3-yl]propanoic acid]
Cytotoxicity (cell viability, MTT) [2]: well tolerated

From paper PMC7828111, “In Search for Multi-Target Ligands as Potential Agents for Diabetes Mellitus and Its Complications—A Structure-Activity Relationship Study on Inhibitors of Aldose Reductase and Protein Tyrosine Phosphatase 1B” (Molecules, 2021)
